Experimental data reported in US20240383908A1, “SYNTHESIS AND APPLICATION OF PHOSPHATASE DEGRADER” (HINOVA PHARMACEUTICALS INC., priority 2021, published 2024).

target: T1, SHP2 protein (Homo sapiens, UniProt Q06124); test: Degradation activity on SHP2 protein in MIA Paca-2 cells (Western blot, DC50); type: cell-based; design: endogenous in cells; host or cells: MIA Paca-2 cells; details: read-out: Degradation activity for differenct cell lines MIA Paca-2 (DC50)
T1 sequence (Q06124 1-593): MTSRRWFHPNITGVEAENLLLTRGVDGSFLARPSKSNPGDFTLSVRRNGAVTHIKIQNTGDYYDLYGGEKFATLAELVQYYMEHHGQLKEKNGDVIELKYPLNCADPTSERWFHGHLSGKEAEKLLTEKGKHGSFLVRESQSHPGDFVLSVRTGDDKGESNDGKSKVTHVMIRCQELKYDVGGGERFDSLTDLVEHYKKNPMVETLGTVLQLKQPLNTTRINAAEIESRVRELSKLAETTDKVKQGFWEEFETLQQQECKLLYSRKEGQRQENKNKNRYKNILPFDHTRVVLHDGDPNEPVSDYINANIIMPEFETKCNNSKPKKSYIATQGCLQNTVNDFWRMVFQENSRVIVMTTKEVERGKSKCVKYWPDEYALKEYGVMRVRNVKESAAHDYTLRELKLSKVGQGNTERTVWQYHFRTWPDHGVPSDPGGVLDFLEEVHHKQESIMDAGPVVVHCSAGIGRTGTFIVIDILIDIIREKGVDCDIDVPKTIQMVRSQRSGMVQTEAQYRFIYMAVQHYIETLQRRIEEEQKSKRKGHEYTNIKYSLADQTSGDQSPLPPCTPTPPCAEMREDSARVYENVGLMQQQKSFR
Method: (1) MV-411 cells were cultured in the cell culture medium, and then well-growing cells were selected and inoculated in a 12-well plate, with 1 mL/well and 1×10^6 cells/well. The plate was incubated overnight in a 5% CO2 cell incubator at 37° C.
(2) 10 mM storage solution of each drug was prepared using dimethylsulfoxide (DMSO). The stock solution was diluted gradually with DMSO before use, and then 1 μL of the compound solution was added to the cell culture well (to ensure that the DMSO concentration in the culture system was […]), so that the final drug concentration is 100 nM, 10 nM, 3 nM, 1 nM, 0.3 nM, and 0.1 nM. Two wells were set for each concentration. The plate was gently shaken and mixed. Additionally, negative control wells (containing an equal amount of DMSO) and positive control wells were included.
(3) After 24 hours of cultivation, the cells were lysed using RIPA cell lysate, and the proteins were extracted. The protein concentration was measured using a BCA assay kit. 5× concentrated protein buffer was loaded, heated at 100° C. for 5 min, and then the sample was stored at −20° C.
(4) For each well, 30 μg of protein was loaded to polyacrylamide gel for electrophoresis.
(5) The protein was transferred from polyacrylamide gel to PVDF membrane, and sealed at room temperature with 5% skimmed milk for 1 h, which was then incubated with the primary antibodies (Anti-SHP2 rabbit mAb and Anti-GAPDH rabbit mAb) at 4° C. overnight. The membrane was washed three times with TBST solution, 10 minutes for each time. After that, the membrane was incubated with the secondary antibodies (horseradish peroxidase labeled goat anti-rabbit IgG) at room temperature for 2 h, and then washed three times with TBST solution, 10 minutes for each time, followed by exposure.
(6) The images were analyzed with Image J grayscale, and the degradation ratio of protein bands in the test group was calculated, based on the negative control group (DMSO) (100%).
(7) Using the Dose-response-inhibition equation in the data processing software GraphPad Prism 8, the DC50 value was obtained (which represents the drug concentration corresponding to 50% degradation of the target protein).
Using similar methods and different cell lines, the degradation activity of the compound according to the present invention on SHP2 protein of different cell lines was tested under suitable culture conditions.

| DC50 [nM] | Structure (SMILES) |
| --- | --- |
| < 100 | CC1(N)CCN(c2cnc(Sc3cccc(NC(=O)c4ccc(N5CCC(N6CCN(c7cnc(C(=O)NCc8ccc9c(c8)CN(C8CCC(=O)NC8=O)C9=O)cc7Cl)CC6)CC5)nc4)c3)cn2)CC1 (stereo not drawn) [Compound 484] |
| < 100 | Cc1cc(C2=CCN(C3CCN(c4ccc(C(=O)Nc5cccc(Sc6cnc(N7CCC8(CC7)CO[C@@H](C)[C@H]8N)cn6)c5)cc4F)CC3)CC2)ncc1C(=O)NCc1ccc2c(c1)CN(C1CCC(=O)NC1=O)C2=O (stereo partly drawn) [Compound 488] |
| > 1000 | CC1(N)CCN(c2cnc(Sc3cccc(NC(=O)[C@H]4C[C@@H]4c4ccc(N5CCN(c6ccc(C(=O)NCc7ccc8c(c7)CN(C7CCC(=O)NC7=O)C8=O)nn6)CC5)c(F)c4)c3)cn2)CC1 (stereo partly drawn) [Compound 281] |
| 100 to 1000 | CC1(N)CCN(c2cnc(Sc3cccc(NC(=O)c4cnc(N5CCC(N6CC=C(c7ccc(C(=O)NCc8ccc9c(c8)CN(C8CCC(=O)NC8=O)C9=O)nc7)CC6)CC5)cn4)c3)cn2)CC1 (stereo not drawn) [Compound 430] |
| > 1000 | CC1(N)CCN(c2cnc(Sc3cccc(NC(=O)CCN4CC5(CCC(OCCNc6ccc(C(=O)NCc7ccc8c(c7)CN(C7CCC(=O)NC7=O)C8=O)nn6)CC5)C4)c3)cn2)CC1 (stereo not drawn) [Compound 214] |
| > 1000 | CC1(N)CCN(c2cnc(Sc3cccc(NC(=O)C4CC(N5CCN(c6ccc7c(c6)C(=O)N(C6CCC(=O)NC6=O)C7=O)CC5)C4)c3)cn2)CC1 (stereo not drawn) [Compound 268] |
| > 1000 | CC1(N)CCN(c2cnc(Sc3cccc(NC(=O)C4CC45CCC(N4CC=C(c6ccc(C(=O)Nc7ccc8c(c7)CN(C7CCC(=O)NC7=O)C8=O)nn6)CC4)CC5)c3)cn2)CC1 (single isomer, unassigned) [Compound 320] |
| > 1000 | CC1(N)CCN(c2cnc(Sc3cccc(NC(=O)C4CC45CCC(N4CC=C(c6ccc(C(=O)N7CCN(c8ccc9c(c8)CN(C8CCC(=O)NC8=O)C9=O)CC7)nc6)CC4)CC5)c3)cn2)CC1 (single isomer, unassigned) [Compound 323] |
| < 100 | Cc1cc(C(=O)Nc2cccc(Sc3cnc(N4CCC(C)(N)CC4)cn3)c2)ccc1N1CCC(N2CCN(c3cnc(C(=O)NCc4ccc5c(c4)CN(C4CCC(=O)NC4=O)C5=O)cc3Cl)CC2)CC1 (stereo not drawn) [Compound 495] |
| 100 to 1000 | Cc1cc(C(=O)NCc2ccc3c(c2)CN(C2CCC(=O)NC2=O)C3=O)ncc1C1=CCN(C2CCN(c3ccc(C(=O)Nc4cccc(Sc5cnc(N6CCC(C)(N)CC6)cn5)c4)cc3F)CC2)CC1 (stereo not drawn) [Compound 470] |
| < 100 | CC1(N)CCN(c2cnc(Sc3cccc(NC(=O)c4ccc(N5CCC(N6CCN(c7ccc(C(=O)NCc8ccc9c(c8)CN(C8CCC(=O)NC8=O)C9=O)nn7)CC6)CC5)nc4)c3)cn2)CC1 (stereo not drawn) [Compound 437] |
| < 100 | CC1(N)CCN(c2cnc(Sc3cccc(NC(=O)c4ccc(N5CCC(N6CC=C(c7ccc(C(=O)NCc8ccc9c(c8)CN(C8CCC(=O)NC8=O)C9=O)nc7)CC6)CC5)cc4)c3)cn2)CC1 (stereo not drawn) [Compound 312] |
| > 1000 | CC1(N)CCN(c2cnc(Sc3cccc(NC(=O)c4cccc(CN5CCN(c6ccc7c(c6)CN(C6CCC(=O)NC6=O)C7=O)CC5)c4)c3)cn2)CC1 (stereo not drawn) [Compound 298] |
| < 100 | CC1(N)CCN(c2cnc(Sc3cccc(NC(=O)c4ccc(N5CCC(N6CC=C(c7ccc(C(=O)Nc8ccc9c(c8)CN(C8CCC(=O)NC8=O)C9=O)nc7)CC6)CC5)cc4)c3)cn2)CC1 (stereo not drawn) [Compound 313] |
| < 100 | CC1(N)CCN(c2cnc(Sc3cccc(NC(=O)c4ccc(N5CCC(N6CCN(c7ccc(C(=O)NCc8ccc9c(c8)CN(C8CCC(=O)NC8=O)C9=O)nn7)CC6)CC5)cc4)c3)cn2)CC1 (stereo not drawn) [Compound 389] |
| 100 to 1000 | Cc1cc(C(=O)Nc2cccc(Sc3cnc(N4CCC(C)(N)CC4)cn3)c2)ccc1N1CCC(N2CC=C(c3ccc(C(=O)NCc4ccc5c(c4)CN(C4CCC(=O)NC4=O)C5=O)nc3F)CC2)CC1 (stereo not drawn) [Compound 469] |
| > 1000 | CC1(N)CCN(c2cnc(Sc3cccc(NC(=O)c4ccc(N5CCC(N6CCN(c7ccc8c(c7)CN(C7CCC(=O)NC7=O)C8=O)CC6)CC5)c(F)c4)c3)cn2)CC1 (stereo not drawn) [Compound 278] |

| DC50 [nM] | Structure (SMILES) |
| --- | --- |
| > 1000 | C[C@@H]1OCC2(CCN(c3cnc(Sc4cccc(NC(=O)c5ccc(N6CCC(N7CCN(c8ccc9c(c8)C(=O)N(C8CCC(=O)NC8=O)C9=O)CC7)CC6)c(F)c5)c4)cn3)CC2)[C@@H]1N (stereo partly drawn) [Compound 279] |
| > 1000 | CC1(N)CCN(c2cnc(Sc3cccc(N4CCC(C(=O)N5CCN(c6ccc7c(c6)CN(C6CCC(=O)NC6=O)C7=O)CC5)CC4)c3)cn2)CC1 (stereo not drawn) [Compound 333] |
| 100 to 1000 | CC1(N)CCN(c2cnc(Sc3cccc(NC(=O)c4ccc(N5CCC(N6CCN(c7ccc(C(=O)NCc8ccc9c(c8)CN(C8CCC(=O)NC8=O)C9=O)nn7)CC6)CC5)nn4)c3)cn2)CC1 (stereo not drawn) [Compound 498] |
| < 100 | C[C@@H]1OCC2(CCN(c3cnc(Sc4cccc(NC(=O)c5ccc(N6CCC(N7CC=C(c8ccc(C(=O)NCc9ccc%10c(c9)CN(C9CCC(=O)NC9=O)C%10=O)cc8Cl)CC7)CC6)c(F)c5)c4)cn3)CC2)[C@@H]1N (stereo partly drawn) [Compound 459] |
| < 100 | CC1(N)CCN(c2cnc(Sc3cccc(NC(=O)c4ncc(N5CCC(N6CCN(c7ccc(C(=O)NCc8ccc9c(c8)CN(C8CCC(=O)NC8=O)C9=O)nn7)CC6)CC5)cn4)c3)cn2)CC1 (stereo not drawn) [Compound 449] |
| > 1000 | CC1(N)CCN(c2cnc(-c3cccc(NC(=O)c4ccc(N5CCC(N6CC=C(c7ccc(C(=O)NCc8ccc9c(c8)CN(C8CCC(=O)NC8=O)C9=O)nn7)CC6)CC5)cc4)c3)cn2)CC1 (stereo not drawn) [Compound 407] |
| > 1000 | CC1(N)CCN(c2cnc(Sc3cccc(NC(=O)C4CC45CCC(N4CC=C(c6ccc(C(=O)NCc7ccc8c(c7)CN(C7CCC(=O)NC7=O)C8=O)nn6)CC4)CC5)c3)cn2)CC1 (single isomer, unassigned) [Compound 318] |
| < 100 | C[C@@H]1OCC2(CCN(c3cnc(Sc4cccc(NC(=O)c5ccc(N6CCC(N7CC=C(c8cnc(C(=O)NCc9ccc%10c(c9)CN(C9CCC(=O)NC9=O)C%10=O)cc8Cl)CC7)CC6)c(F)c5)c4)cn3)CC2)[C@@H]1N (stereo partly drawn) [Compound 460] |
| < 100 | CC1(N)CCN(c2cnc(Sc3cccc(NC(=O)c4ccc(C5=CCC(N6CC=C(c7ccc(C(=O)NCc8ccc9c(c8)CN(C8CCC(=O)NC8=O)C9=O)nn7)CC6)CC5)cc4)c3)cn2)CC1 (stereo not drawn) [Compound 368] |
| > 1000 | NC1CCN(c2cnc(Sc3cccc(NC(=O)c4ccc(N5CCC(N6CC=C(c7ccc(C(=O)NCc8ccc9c(c8)CN(C8CCC(=O)NC8=O)C9=O)nn7)CC6)CC5)cc4)c3)cn2)CC1F (stereo not drawn) [Compound 376] |
| > 1000 | CC1(N)CCN(c2cnc(Sc3cccc(NC(=O)c4ccc(N5CCC(N6C=C(c7ncc(C(=O)NCc8ccc9c(c8)CN(C8CCC(=O)NC8=O)C9=O)o7)CC6)CC5)c(F)c4)c3)cn2)CC1 (stereo not drawn) [Compound 426] |
| > 1000 | CC1(N)CCN(c2cnc(Sc3cccc(NC(=O)CCCCCCN4CCC5(CC4)CC(=O)N(CC(=O)NCc4ccc6c(c4)CN(C4CCC(=O)NC4=O)C6=O)C5)c3)cn2)CC1 (stereo not drawn) [Compound 215] |
| > 1000 | CC1(N)CCN(c2cnc(Sc3cccc(NC(=O)C4CCC(N5CC=C(c6ccc(C(=O)N7CCN(c8ccc9c(c8)CN(C8CCC(=O)NC8=O)C9=O)CC7)nc6)CC5)CC4)c3)cn2)CC1 (stereo not drawn) [Compound 305] |
| < 100 | Cc1cc(C(=O)Nc2cccc(Sc3cnc(N4CCC(C)(N)CC4)cn3)c2)cc(C)c1N1CCC(N2CC=C(c3ccc(C(=O)NCc4ccc5c(c4)CN(C4CCC(=O)NC4=O)C5=O)nc3)CC2)CC1 (stereo not drawn) [Compound 486] |
| < 100 | CC1(N)CCN(c2cnc(Sc3cccc(NC(=O)c4ccc(N5CCC(N6CCN(c7cnc(C(=O)NCc8ccc9c(c8)CN(C8CCC(=O)NC8=O)C9=O)cc7Cl)CC6)CC5)cc4F)c3)cn2)CC1 (stereo not drawn) [Compound 497] |
| < 100 | CC1(N)CCN(c2cnc(Sc3cccc(NC(=O)C4CCC(N5CCC(N6CC=C(c7ccc(C(=O)NCc8ccc9c(c8)CN(C8CCC(=O)NC8=O)C9=O)nc7)CC6)C(F)C5)CC4)c3)cn2)CC1 (stereo not drawn) [Compound 420] |
